{"source": "patent US9648880B2", "about": "“Antifungal agents and uses thereof” (University of Massachusetts, priority 2012, dated 2017)", "key": {"[1]": {"target": "T1, p300 (Homo sapiens, UniProt Q09472)", "T1 construct": "p300 catalytic domain (p300 amino acids 1195-1810; Fan, 2010); 6xHis (N); FLAG (N); made in house; host or cells: BL21 E. coli", "T1 sequence (Q09472 1195-1810)": "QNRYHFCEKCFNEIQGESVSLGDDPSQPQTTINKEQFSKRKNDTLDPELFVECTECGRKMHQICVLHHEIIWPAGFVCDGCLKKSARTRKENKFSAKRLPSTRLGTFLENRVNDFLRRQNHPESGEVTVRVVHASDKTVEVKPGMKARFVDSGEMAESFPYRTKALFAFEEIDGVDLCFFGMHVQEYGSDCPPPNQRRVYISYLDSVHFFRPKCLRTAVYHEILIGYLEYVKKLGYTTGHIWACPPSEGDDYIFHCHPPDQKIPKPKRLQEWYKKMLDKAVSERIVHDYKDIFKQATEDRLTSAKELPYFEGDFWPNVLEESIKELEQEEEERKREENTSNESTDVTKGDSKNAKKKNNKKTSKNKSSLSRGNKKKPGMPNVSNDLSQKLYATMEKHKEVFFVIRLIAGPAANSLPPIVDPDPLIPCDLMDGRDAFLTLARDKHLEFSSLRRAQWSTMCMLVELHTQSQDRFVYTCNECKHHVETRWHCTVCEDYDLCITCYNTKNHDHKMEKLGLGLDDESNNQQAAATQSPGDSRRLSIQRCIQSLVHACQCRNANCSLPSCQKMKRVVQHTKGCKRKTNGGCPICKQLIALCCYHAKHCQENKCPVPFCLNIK", "test": "HAT-ThioGlo1 time course assay, p300", "format": "biochemical", "conditions": "up to 100 μM"}, "[2]": {"target": "T2, Gcn5 (Saccharomyces cerevisiae, UniProt Q03330)", "T2 construct": "6xHis (N); made in house; host or cells: BL21 E. coli", "T2 sequence (Q03330 whole entry)": "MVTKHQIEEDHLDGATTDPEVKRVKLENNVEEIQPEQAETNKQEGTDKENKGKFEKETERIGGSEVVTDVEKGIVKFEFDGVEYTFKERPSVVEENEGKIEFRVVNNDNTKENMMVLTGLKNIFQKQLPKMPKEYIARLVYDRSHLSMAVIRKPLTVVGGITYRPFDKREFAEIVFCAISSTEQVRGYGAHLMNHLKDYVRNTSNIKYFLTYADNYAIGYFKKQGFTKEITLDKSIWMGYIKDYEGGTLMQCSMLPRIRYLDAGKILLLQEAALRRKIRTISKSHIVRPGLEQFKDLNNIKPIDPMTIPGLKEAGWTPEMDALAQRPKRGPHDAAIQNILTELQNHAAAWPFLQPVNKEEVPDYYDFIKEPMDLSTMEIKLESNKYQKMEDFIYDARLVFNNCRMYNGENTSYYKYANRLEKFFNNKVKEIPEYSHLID", "test": "HAT-ThioGlo1 time course assay, Gcn5", "format": "biochemical, S. cerevisiae", "conditions": "up to 100 μM"}, "[3]": {"target": "T3, Rtt109-Vps75 (Saccharomyces cerevisiae, UniProt Q07794)", "T3 construct": "6xHis (on one of the two proteins of the complex); made in house; host or cells: bacteria", "T3 sequence (Q07794 1-436)": "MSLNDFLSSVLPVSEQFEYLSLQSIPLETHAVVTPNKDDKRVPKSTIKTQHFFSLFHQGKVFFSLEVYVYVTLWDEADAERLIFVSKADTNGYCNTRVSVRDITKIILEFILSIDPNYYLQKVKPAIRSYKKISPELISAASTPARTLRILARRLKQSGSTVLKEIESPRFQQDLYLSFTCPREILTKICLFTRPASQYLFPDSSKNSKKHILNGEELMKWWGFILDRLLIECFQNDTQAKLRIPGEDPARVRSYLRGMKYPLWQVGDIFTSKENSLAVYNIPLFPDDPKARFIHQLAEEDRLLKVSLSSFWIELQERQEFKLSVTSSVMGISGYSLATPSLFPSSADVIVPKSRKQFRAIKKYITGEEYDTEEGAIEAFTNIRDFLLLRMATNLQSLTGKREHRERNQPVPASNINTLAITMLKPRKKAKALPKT", "T3 sequence (P53853 1-264 partner)": "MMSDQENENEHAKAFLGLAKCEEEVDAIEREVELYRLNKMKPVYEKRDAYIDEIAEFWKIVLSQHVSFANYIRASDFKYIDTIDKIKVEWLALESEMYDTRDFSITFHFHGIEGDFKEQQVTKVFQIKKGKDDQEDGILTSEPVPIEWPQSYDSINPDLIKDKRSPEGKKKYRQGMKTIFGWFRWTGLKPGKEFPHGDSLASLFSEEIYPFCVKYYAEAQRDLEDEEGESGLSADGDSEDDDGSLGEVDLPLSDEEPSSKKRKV", "test": "HAT-ThioGlo1 time course assay, Rtt109-Vps75", "format": "biochemical, S. cerevisiae", "conditions": "IC50, 50 nM Rtt109-Vps75, 15 μM H3n21 peptide, 30 μM Ac-CoA"}}, "note": "“And” between values parts separate entries of the source, which are not always exact repeats. Identical values can stand only once.", "data": [{"molecule": "CCCC1(c2ccccc2)NC(=O)N(CC(=O)N(C)Cc2c(F)cccc2Cl)C1=O", "note": "(stereo not drawn) [KB7, N-[(2-chloro-6-fluorophenyl)methyl]-2-(2,5-dioxo-4-phenyl-4-propylimidazolidin-1-yl)-N-methylacetamide]", "values": [{"measurement": "enzyme reaction rate, % activity", "setting": "[1]", "result": "≥ 80", "unit": "%"}, {"measurement": "enzyme reaction rate, % activity", "setting": "[2]", "result": "≥ 80", "unit": "%"}, {"measurement": "IC50", "setting": "[3]", "result": "55.2 nM and ~56 nM"}]}]}
